Experimental data: patent US5594022A, “Tachykinin antagonists” (Warner-Lambert Company, priority 1994, dated 1997)
pIC50: −log10 of the molar value. Read-outs that look alike come from different tables or passages of the source.

Target: T1, NK1 receptor (Cavia porcellus, UniProt P30547)
T1 construct: guinea pig cerebral cortex membranes; from tissue; host or cells: guinea pig cerebral cortex membranes
Assay: In vitro NK1 receptor binding ([125I] Bolton Hunter Substance-P, guinea pig cerebral cortex membranes)
Conditions: [125I-BH]Substance-P 0.1 nM
Protocol: The compounds of the invention were also evaluated in three tachykinin binding assays.

[1] = read-out: Binding IC50, In Vitro NK1 Receptor Binding

T1 sequence (P30547 whole entry): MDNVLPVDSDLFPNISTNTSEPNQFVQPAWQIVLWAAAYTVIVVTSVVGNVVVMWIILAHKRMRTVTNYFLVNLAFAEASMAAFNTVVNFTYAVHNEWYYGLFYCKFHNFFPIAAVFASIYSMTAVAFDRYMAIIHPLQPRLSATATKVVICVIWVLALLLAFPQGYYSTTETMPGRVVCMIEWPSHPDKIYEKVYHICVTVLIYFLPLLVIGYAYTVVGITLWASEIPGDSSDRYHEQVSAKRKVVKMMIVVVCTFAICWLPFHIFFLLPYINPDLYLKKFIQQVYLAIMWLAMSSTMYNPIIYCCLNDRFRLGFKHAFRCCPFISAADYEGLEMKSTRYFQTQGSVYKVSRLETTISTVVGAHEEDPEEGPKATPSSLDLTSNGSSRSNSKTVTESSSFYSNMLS

Row | pIC50 [1] | SMILES | pIC50 (Binding IC50, In Vitro NK1 Receptor Binding)
1 | 5.00 | CC(NC(=O)[C@@](C)(Cc1c[nH]c2ccccc12)NC(=O)OCc1ccccc1)c1cc(C(F)(F)F)cc(C(F)(F)F)c1 (mixture of isomers) [Example 39, Phenylmethyl (R,RS)-[2-[[1-[3,5-bis(trifluoromethyl) -phenyl]ethyl]amino]-1-(1H-indol-3-ylmethyl)-1-methyl-2-oxoethyl]carbamate] | 
2 | 6.92 | C[C@H](NC(=O)[C@@](C)(Cc1c[nH]c2ccccc12)NC(=O)OCc1ccco1)c1ccccc1 (relative stereo) [Example 49, 2-Furanylmethyl [R,(R*,S*)]-[1-(1H-indol-3-ylmethyl) -1-methyl-2-oxo-2-[(1-phenylethyl)amino]ethyl]carbamate] | 
3 | 7.15 | Cc1ccc(C(C)NC(=O)[C@@](C)(Cc2c[nH]c3ccccc23)NC(=O)OCc2ccccc2)cc1 (single isomer, unassigned) [Example 36, Phenylmethyl [1-(1H-indol-3-ylmethyl)-1-methyl-2-[[1-(4-methylphenyl)ethyl]amino]-2-oxoethyl]carbamate] | 
4 | 6.54 | Cc1ccc(C(C)NC(=O)[C@@](C)(Cc2c[nH]c3ccccc23)NC(=O)OCc2ccccc2)cc1 (single isomer, unassigned) [Example 37, Phenylmethyl [1-(1H-indol-3-ylmethyl)-1-methyl-2-[[1-(4-methylphenyl)ethyl]amino]-2-oxoethyl]carbamate] | 
5 | 6.47 | CN(Cc1ccccc1)C(=O)C(Cc1c[nH]c2ccccc12)NC(=O)OCc1ccccc1 (stereo not drawn) [Example 1] | 
6 | 6.66 | CN(Cc1ccccc1)C(=O)[C@H](Cc1c[nH]c2ccccc12)NC(=O)OCc1ccccc1 [Example 3] | 
7 | 6.70 | CC(NC(=O)C(Cc1c[nH]c2ccccc12)NC(=O)OCc1ccccc1)c1ccccc1 (stereo not drawn) [Example 4] | 
8 | 7.12 | C[C@H](NC(=O)[C@@H](Cc1c[nH]c2ccccc12)NC(=O)OCc1ccccc1)c1ccccc1 [Example 6] | 
9 | 6.51 | C[C@H](NC(=O)[C@H](Cc1c[nH]c2ccccc12)NC(=O)OCc1ccccc1)c1ccccc1 [Example 7] | 
10 |  | C[C@H](NC(=O)[C@](C)(Cc1c[nH]c2ccccc12)NC(=O)OCc1ccccc1)c1ccccc1 [Example 16] | 6.15
11 | 6.77 | CN(C(=O)OCc1ccccc1)[C@@H](Cc1c[nH]c2ccccc12)C(=O)NCc1ccccc1 [Example 23] | 
12 | 6.73 | C[C@H](NC(=O)[C@H](Cc1c[nH]c2ccccc12)N(C)C(=O)OCc1ccccc1)c1ccccc1 [Example 24] | 
13 | 6.51 | C[C@@H](NC(=O)[C@H](Cc1c[nH]c2ccccc12)N(C)C(=O)OCc1ccccc1)c1ccccc1 [Example 27] | 
14 | 6.31 | CN(C(=O)OCc1ccc(Cl)cc1)[C@@H](Cc1c[nH]c2ccccc12)C(=O)NCc1ccccc1 [Example 29] | 
15 | 6.63 | O=C(N[C@@H](Cc1c[nH]c2ccccc12)C(=O)OCc1cc(C(F)(F)F)cc(C(F)(F)F)c1)OCc1ccccc1 [Example 35, Methyl N-[(phenylmethoxy)carbonyl]-, [3,5-bis(trifluoromethyl)phenyl]-L-tryptophan] | 
16 | 7.00 | CC(NC(=O)C(C)(Cc1c[nH]c2ccccc12)NC(=O)OCc1ccccc1)C1CCCCC1 (stereo not drawn) [Example 38, Phenylmethyl [R-(R*,R*)]-(2-[(1-cyclohexyethyl)amino]-1-(1H-indol-3-ylmethyl)-1-methyl-2-oxoethyl]carbamate] | 
17 | 6.68 | COc1ccc(C(C)NC(=O)[C@@](C)(Cc2c[nH]c3ccccc23)NC(=O)OCc2ccccc2)cc1 (stereo partly drawn) [Example 40, Phenylmethyl (R,RS)-[1-(1H, indole-3-ylmethyl)-2-[[1-(4-methoxyphenyl)ethyl]amino]-1-methyl-2-oxoethyl]carbamate] | 
18 | < 5.00 | C[C@H](NC(=O)[C@@](C)(Cc1c[nH]c2ccccc12)NC(=O)OCc1ccncc1)c1ccccc1 [Example 41] | 
19 | 6.85 | C[C@H](NC(=O)[C@@](C)(Cc1c[nH]c2ccccc12)NC(=O)OCc1ccsc1)c1ccccc1 [Example 42, 3-Thienylmethyl [R-(R*,S*)]-[(1H-indol-3-ylmethyl) -1-methyl-2-oxo-2-[(1-phenylethyl)amino]ethyl]carbamate] | 
20 | 7.00 | C[C@H](NC(=O)[C@@](C)(Cc1c[nH]c2ccccc12)NC(=O)OCc1cccs1)c1ccccc1 [Example 43, 2-Thienylmethyl [R-(R*,S*)]-[1-(1H-indol-3-ylmethyl) -1-methyl-2-oxo-[(1-phenylethyl)amino]ethyl]carbamate] | 
21 | 6.96 | C[C@H](NC(=O)[C@@](C)(Cc1c[nH]c2ccccc12)NC(=O)OC1CCc2ccccc21)c1ccccc1 (stereo partly drawn) [Example 44, 2,3-Dihydro-1H-inden-3-yl [R-(R*,S*)]-[1(1H-indol-3-ylmethyl)-1-methyl-2-oxo-2-[(phenylethyl)amino]ethyl]carbamate] | 
22 | 6.96 | C[C@H](NC(=O)[C@@](C)(Cc1c[nH]c2ccccc12)NC(=O)OC1Cc2ccccc2C1)c1ccccc1 [Example 46, 2,3-Dihydro-1H-inden-2-yl [1-(1H-indol-3-ylmethyl) -1-methyl-2-oxo-2-[(1-phenylethyl)amino]ethyl]carbamate] | 
23 | 6.64 | C[C@H](NC(=O)[C@@](C)(Cc1c[nH]c2ccccc12)NC(=O)OCc1ccoc1)c1ccccc1 [Example 48, 3- Furanylmethyl [R-(R*,S*)]-[1-(1H-indol-3-ylmethyl) -1-methyl-2-oxo-2-[(1-phenylethyl)amino]ethyl]carbamate] | 
24 | 6.92 | C[C@H](NC(=O)[C@@](C)(Cc1c[nH]c2ccccc12)NC(=O)OCc1cccc(F)c1)c1ccccc1 [Example 50, (3-Fluorophenyl) methyl [R-(R*,S*)]-[1-(1H-indol-3-ylmethyl)-1-methyl-2-oxo-2-[(1-phenylethyl)amino]ethyl]carbamate] | 
25 | 6.64 | C[C@H](NC(=O)[C@@](C)(Cc1c[nH]c2ccccc12)NC(=O)OCc1ccc(F)cc1)c1ccccc1 [Example 51, (4-Fluorophenyl) methyl [R-(R*,S*)]-[1-(1H-indol-3-ylmethyl)-1-methyl-2-oxo-2-[(1-phenylethyl)amino]ethyl]carbamate] | 
26 | 7.31 | C[C@H](NC(=O)[C@@](C)(Cc1c[nH]c2ccccc12)NC(=O)OCc1cccc(F)c1F)c1ccccc1 [Example 52, (2,3-Difluorophenyl) methyl [R-(R*,S*)]-[(1H-indol-3-methyl)-1-methyl-2-oxo-[(1-phenylethyl)amino]ethyl]carbamate] | 
27 | < 6.00 | C[C@H](NC(=O)C(Cc1n[nH]c2ccccc12)NC(=O)OCc1ccccc1)c1ccccc1 (stereo partly drawn) [Example 55, Phenylmethyl [R-(R*,S*)]and [S-(R*,R*)]-[1-(1H -indazol-3-ylmethyl-)-2-oxo-2-[(1-phenylethyl)amino]ethyl]carbamate] | 
28 | 5.49 | C[C@H](NC(=O)C(Cc1c[nH]c2ccc(F)cc12)NC(=O)OCc1ccccc1)c1ccccc1 (stereo partly drawn) [Example 56, Phenylmethyl [R-(R*,S*)]and [S-(R*,R*)]-[1-[(5-fluoro-1H-indol-3-yl)methyl]-2-oxo-2-[(1-phenylethyl)amino]ethyl]carbamate] | 
29 | 5.47 | CC(NC(=O)C(Cc1cn(C)c2ccccc12)NC(=O)OCc1ccccc1)c1ccccc1 (stereo not drawn) [Example 57, Phenylmethyl [1-(1-methyl-1H-indol-3-ylmethyl]-2-pxp-2-[(1-phenylethyl)amino]ethyl]carbamate] | 
30 | 5.77 | C[C@H](NC(=O)[C@@H](Cc1ccc2ccccc2c1)NC(=O)OCc1ccccc1)c1ccccc1 [Example 58] | 
